From PMC12679585, “Design, synthesis, and characterization of novel 5-ethylsulfonyl-indazole-3-carboxamides as dual VEGFR-2 and EGFR inhibitors: apoptotic antiproliferative and immunomodulatory evaluations” (RSC Advances, 2025)
“And” between values parts separate entries of the source, which are not always exact repeats. Equal values may be shown once.

What was measured:
[1] = test system: WI-38; experiment: In vitro cytotoxicity against normal human cells (MTT); format: cell-based; conditions: for Selectivity index (SI), HCT-116: WI-38 versus HCT-116; for Selectivity index (SI), MCF-7: WI-38 versus MCF-7; for IC50: normal human diploid cell line WI-38, MTT
From the text: (§1) The results indicated a favorable safety margin for the evaluated compounds about normal cells, Table 5.

[2] = as above; format: cell-based; conditions: human, WI-38 cells (normal human diploid cell line), normal human diploid cell line WI-38, MTT
From the text: as §1

[3] = target: EGFR (Homo sapiens, UniProt P00533); experiment: EGFR inhibitory assay (EGFR-TK assay)
Method: Erlotinib was used as positive control in the assay.
To record autophosphorylation level, EGFR kinase assay was carried out on the basis of DELFIA/Time-Resolved Fluorometry. The compounds were first dissolved in DMSO
absolute, subsequent to dilution to appropriate concentration using HEPES (25 mM) at
pH 7.4. Each compound (10 μL) was incubated with recombinant enzyme (10 μL, 5 ng for EGFR, 1:80 dilution in 100 mM HEPES) for 10 min at 25 °C, subsequent to the addition of 5X buffer (10 μL, containing 2 mM MnCl2, 100 μM Na3VO4, 20 mM HEPES and 1 mM DTT) and ATP-MgCl2 (20 μL, containing 0.1 mM ATP and 50 mM MgCl2) and incubation for 1h. The negative and positive controls were included in each plate by the incubation of enzyme either with or without ATP-MgCl2. The liquid was removed after incubation and the plates were washed thrice using a wash buffer.
Europium-tagged antiphosphotyrosine antibody (75 μL, 400 ng) was added to each well followed by incubation of 1h and then washing of the plates using buffer. The enhancement solution was added to each well and the signal was recorded at excitation
The autophosphorylation percentage inhibition by compounds was calculated using the following equation:
Using the curves of percentage inhibition of eight concentrations of each compound,
were from EGFR because the enzyme preparation contained low impurities.

[4] = test system: Caspase-9; experiment: Caspase-9 activation assay in HCT-116 cells; conditions: for Caspase-9 fold change: relative to control
[5] = test system: HCT-116; experiment: Antiproliferative assay (MTT); format: cell-based; conditions: Homo sapiens, HCT-116 colorectal, mean of three experiments ± SD
From the text: (§2) The MTT assay[53,54] was employed to evaluate the antiproliferative efficacy of new compounds 8a–l against two human cancer cell lines: MCF-7 (breast) and HCT-116 (colorectal carcinoma). Erlotinib was employed as the benchmark. Check Appendix A for additional experimental information.
(§3) The MTT assay[53,54] was used to evaluate the antiproliferative properties of novel compounds 8a–l against two human cancer cell lines: MCF-7 (breast cancer) and HCT-116 (colorectal carcinoma). Erlotinib was utilized as the reference. […] The provided values represent the means of three experiments ± standard deviation (SD). […]
(§4) of Ham's F-12 medium/ Dulbecco's modified Eagle's medium (DMEM) (1:1) supplemented with 10% foetal calf serum (GIBCO, UK), 2 mM glutamine, insulin (10 μg/mL), hydrocortisone (500 ng/mL) and epidermal growth factor (20 ng/mL). Trypsin ethylenediamine tetra acetic acid (EDTA) was used to passage the cells after every 2-3 days. 96-well flat-bottomed cell culture plates were used to seed the cells at a density of 10^4 cells mL-1. The medium was aspirated from all the wells of culture plates after 24 h followed by the addition of synthesized compounds (in 200 μL medium to yield a final concentration of 0.1% (v/v) dimethyl sulfoxide) into individual wells of the plates.
(§5) Four wells were designated to a single compound. The plates were allowed to incubate at 37°C for 96 h. Afterwards, the medium was aspirated and 3-[4,5-dimethylthiazol-2-yl]-2,5-diphenyltetrazolium bromide (MTT) (0.4 mg/mL) in medium was added to each well and subsequently incubated for 3 h. The medium was aspirated and 150 μL dimethyl sulfoxide (DMSO) was added to each well. The plates were vortexed followed by the measurement of absorbance at 540 nm on a microplate reader. […]
(§6) All cell lines […]
(§7) were obtained from ATCC (American Type Cell Culture). […]
(§8) μM), benzamidine HCl (16 μg/mL), NaCl (10 mM),leupeptin (10 μg/mL) and pepstatin (10 μg/mL) at 0°C for 20 min at pH 7.4, followed by centrifugation for 20 min. To eliminate the nonspecifically bound material, a Ni-NTA super flow packed column was (1 picture or pasted object on this page, not shown here)

[6] = test system: MCF-7; experiment: Antiproliferative assay (MTT); format: cell-based; conditions: Homo sapiens, MCF7, MCF-7 breast, mean of three experiments ± SD
From the text: as §2, §3, §4, §5, §6, §7, §8

[7] = test system: Caspase-3; experiment: Caspase-3 activation assay in HCT-116 cells; format: cell-based, human; conditions: for Caspase-3 fold change: relative to control
Method: Appendix A gives more details.
Additionally, activating caspases is essential for both initiating and terminating the apoptotic process.[64] Caspase-3 is an essential enzyme that cleaves several proteins within cells, leading to apoptotic cell death.[65] […]
be read immediately after the Stop Solution is added or within one hour if the microwell strips are stored at 2 - 8°C in the dark. Read the absorbance of each microwell on a spectrophotometer using 450 nm as the primary wavelength.
4.2.5. Caspase-3 activation assay
Allow all reagents to reach room temperature before use. Gently mix all liquid reagents prior to use. Determine the number of 8-well strips needed for the assay. Insert these in the frame(s) for current use. Add 100 μl of the Standard Diluent Buffer to the zero standard wells. Well(s) reserved for chromogen blank should be left empty. Add 100 μl of standards and controls or diluted samples to the appropriate microtiter wells. The sample dilution chosen should be optimized for each experimental system. Tap gently on side of plate to mix. Cover wells with plate cover and incubate for 2 hours at room temperature. Thoroughly aspirate or decant solution from wells and discard the liquid, Wash wells 4 times. Pipette 100 μl of Caspase-3 (Active) Detection Antibody solution into each well except the chromogen blank(s). Tap gently on the side of the plate to mix. Cover plate with plate cover and incubate for 1 hour at room temperature.
Thoroughly aspirate or decant solution from wells and discard the liquid, Wash wells 4 times. Add 100 μl Anti-Rabbit IgG HRP Working Solution to each well except the chromogen blank(s). Prepare the working dilution as described in Preparing IgG HRP.
Cover wells with the plate cover and incubate for 30 minutes at room temperature.
Thoroughly aspirate or decant solution from wells and discard the liquid. Wash wells 4 times. Add 100 μl of Stabilized Chromogen to each well. The liquid in the wells will […]
begin to turn blue. […] The
Tap side of plate gently to mix.
Use a curve fitting software to generate […]
for the dilution in step 3.
4.2.6. Caspase-8/9 activation assay
This lysate was diluted in […]

[8] = test system: TNF-α; experiment: TNF-α level by qRT-PCR in HCT-116 cells; conditions: for TNF-α (% inhibition): HCT-116 cells, 24 hours, at IC50 against HCT-116 (8g 24 nM, 8h 23 nM), qRT-PCR
Method: The reference molecule was dexamethasone, a drug that uniformly regulates the immune system.
TNF-α and IL6 a determination
determined using of q RT-PCR technique. By using q RTPCR (reference), the amount
treated HCT-116 cells was measured (at the IC50 concentrations). Total RNA was
accordance with the manufacturer's instructions (RNeasy mini kit, Qiagen, Germany).
Following RNA extraction, the Revert Aid First Strand cDNA Synthesis kit (Thermo
Scientific, USA) was used to create cDNA. The Rotor-Gene Q real-time PCR thermal
cycler was used to amplify target cDNA for apoptosis markers and GAPDH [as a
normalization (housekeeping) gene] using one step RT-PCR SYBR® Green kit Master
Mix (Bio-Rad Laboratories, USA). Two microliters of cDNA were combined with one
microliter of forward primer, one microliter of reverse primer, ten microliters of master
mixture, and twenty microliters of nuclease-free water to complete the reaction volume.
Every experiment was carried out three times.
Quantitative Real Time Reverse-Transcriptase PCR (qRT-PCR) primer sequences
TNF-α : R 5'- [sequence] -3'.
IL6 : R 5'- [sequence] -3
GAPDH : R 5’- [sequence]-3’

[9] = Homo sapiens, HCT-116, read-out: TNF-α (% inhibition), HCT-116 cells, 24 hours, at IC50 against HCT-116 (8g 24 nM, 8h 23 nM), qRT-PCR

EGFR, sequence (P00533 669-1210): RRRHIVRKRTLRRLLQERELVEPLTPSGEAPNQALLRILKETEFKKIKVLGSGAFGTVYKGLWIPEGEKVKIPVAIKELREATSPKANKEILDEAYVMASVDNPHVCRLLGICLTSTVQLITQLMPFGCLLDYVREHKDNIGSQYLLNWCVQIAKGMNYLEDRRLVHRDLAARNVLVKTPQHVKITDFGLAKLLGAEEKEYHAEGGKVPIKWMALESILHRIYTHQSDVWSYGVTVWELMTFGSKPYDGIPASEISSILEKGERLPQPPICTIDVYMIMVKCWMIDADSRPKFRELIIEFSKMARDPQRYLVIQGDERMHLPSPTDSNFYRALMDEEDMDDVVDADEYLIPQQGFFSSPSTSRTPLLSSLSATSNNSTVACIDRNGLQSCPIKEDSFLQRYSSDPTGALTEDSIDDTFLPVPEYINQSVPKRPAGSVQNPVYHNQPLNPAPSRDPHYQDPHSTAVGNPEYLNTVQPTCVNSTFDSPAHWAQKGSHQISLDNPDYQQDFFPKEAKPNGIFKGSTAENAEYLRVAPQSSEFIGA

In the case of `CCS(=O)(=O)c1ccc2[nH]nc(C(=O)NNC(=O)NC3CCCCCC3)c2c1` [Compound 8h, 2-(5-(Ethylsulfonyl)-1H-indazole-3-carbonyl)-N-(cycloheptyl)hydrazine-1-carboxamide], the “Selectivity index (SI), HCT-116” value [1] is reported as >6.5, the “Selectivity index (SI), MCF-7” value [1] is reported as >6.0 and the IC50 [1] is reported as > 150 nM. The IC50 [2] was > 120 nM, the IC50 [3] was 68 ± 5 nM and the “Caspase-9 Conc.” value [4] was 23 ± 1 ng/mL. It also gave a Caspase-9 fold change [4] of 23 fold, an IC50 [5] of 23 ± 1 nM and an IC50 [6] of 25 ± 1 nM. The “Caspase-3 Conc.” value [7] was 510 ± 4 pg/mL and 510 ± 5 pg/mL, the Caspase-3 fold change [7] was 7.90 fold and the “TNF-α (% inhibition)” value [8] was 82%. The inhibition at 0.023 µM [8, 9] was ~80%.
For `CCS(=O)(=O)c1ccc2[nH]nc(C(=O)NNC(=O)NC34CC5CC(CC(C5)C3)C4)c2c1` [Compound 8g, 2-(5-(Ethylsulfonyl)-1H-indazole-3-carbonyl)-N-(adamantan-1-yl)hydrazine-1-carboxamide], the “Selectivity index (SI), HCT-116” value [1] was >6.0, the “Selectivity index (SI), MCF-7” value [1] was >5.0 and the IC50 [1] was > 150 nM. For the same compound, the IC50 [2] was > 120 nM, the IC50 [3] was 71 ± 5 nM and the “Caspase-9 Conc.” value [4] was 21 ± 3 ng/mL. For the same compound, the Caspase-9 fold change [4] was 21 fold, the IC50 [5] was 24 ± 1 nM and the IC50 [6] was 28 ± 1 nM. The “Caspase-3 Conc.” value [7] was 490 ± 3 pg/mL and 490 ± 5 pg/mL, the Caspase-3 fold change [7] was 7.50 fold and the “TNF-α (% inhibition)” value [8] was 79%. It also gave an inhibition at 0.024 µM [8, 9] of ~80%.
